Assay results published in the NIST ThermoML archive (doi:10.1016/j.jct.2006.03.003).
± gives the expanded uncertainty stated by the source.

Experiments:
[1] = 298.15 K; 101.33 kPa; Liquid
[2] = xn = mol fraction of the nth substance listed; conditions: 298.15 K; 101 kPa; Liquid; x1 = 0.61

mass density [2]	SMILES	mass density [1]
	CC(C)=O [acetone]	784.65 ± 0.31 kg/m3
	CCC(C)=O [butanone]	799.75 ± 0.29 kg/m3
1516.5 ± 1.8 kg/m3	COC(F)(F)C(F)(C(F)(F)F)C(F)(F)F [methyl nonafluoroisobutyl ether] + COC(F)(F)C(F)(F)C(F)(F)C(F)(F)F	
	CCC(=O)CC [pentan-3-one]	809.09 ± 0.28 kg/m3
